In brackets after ≈: the same amount, converted by molar mass.

Holding throughout (format): functional
Assay [1] has as its system Staphylococcus aureus. In words: Antibacterial activity against methicillin susceptible staphylococcus aureus ATCC 29213 at 10 % serum.
In assay [2] the test system is Staphylococcus aureus. In words: Antibacterial activity against methicillin-resistant staphylococcus aureus ATCC 43300 at 10 % serum.
For assay [3], the system named is Staphylococcus aureus. In words: Antibacterial activity against methicillin-resistant staphylococcus aureus ATCC 43300 at 0 % serum.
The test system of assay [4] is Enterococcus faecium. In words: Antibacterial activity against Enterococcus faecium ATCC 49452 at 0 % serum.
The subject of assay [5] is Enterococcus faecium. The assay can be described thus: Antibacterial activity against Enterococcus faecium ATCC 49452 at 10 % serum. The note with it: ATCC 49452, Serum.
Assay [6] has as its system Staphylococcus aureus. The assay can be described thus: Antibacterial activity against methicillin susceptible staphylococcus aureus ATCC 29213 at 0 % serum.
The subject of assay [7] is Enterococcus faecalis. The assay can be described thus: Antibacterial activity against Enterococcus faecalis ATCC 6569 at 0 % serum.
Assay [8] relates to Enterococcus faecalis. In words: Antibacterial activity against Enterococcus faecalis ATCC 6569 at 10 % serum. Conditions: ATCC 6569, Serum.

Take `CCCCCCCCCC(=O)N[C@@H](Cc1c[nH]c2ccccc12)C(=O)N[C@H](CC(N)=O)C(=O)N[C@@H](CCO)C(=O)N[C@@H]1C(=O)NCC(=O)N[C@@H](CCCNCc2ccc(OCc3ccccc3)c(Cl)c2)C(=O)N[C@@H](CC(=O)O)C(=O)N[C@H](C)C(=O)N[C@@H](CC(=O)O)C(=O)NCC(=O)N[C@H](CO)C(=O)N[C@@H]([C@H](C)CC(=O)O)C(=O)N[C@@H](CC(=O)c2ccccc2N)C(=O)O[C@@H]1C`: the MIC worked out at 3.13 mg/L (≈ 1.7 µM) against Staphylococcus aureus [1]; 3.13 mg/L (≈ 1.7 µM) in the assay with Staphylococcus aureus [2]; 0.78 mg/L (≈ 0.425 µM) against Staphylococcus aureus [3]; 0.39 mg/L (≈ 0.212 µM) in the assay with Enterococcus faecium [4]; 25 mg/L (≈ 13.6 µM) with Enterococcus faecium [5]; 0.78 mg/L (≈ 0.425 µM) with Staphylococcus aureus [6]. The figures for the MIC in the assay on Enterococcus faecalis [7] and in the assay with Enterococcus faecalis [8] were 0.78 mg/L (≈ 0.425 µM) and 12.5 mg/L (≈ 6.8 µM), respectively.

As to `CCCCCCCCCC(=O)N[C@@H](Cc1c[nH]c2ccccc12)C(=O)N[C@H](CC(N)=O)C(=O)N[C@@H](CCO)C(=O)N[C@@H]1C(=O)NCC(=O)N[C@@H](CCCNCc2ccc(OCc3ccc(F)cc3)c([N+](=O)[O-])c2)C(=O)N[C@@H](CC(=O)O)C(=O)N[C@H](C)C(=O)N[C@@H](CC(=O)O)C(=O)NCC(=O)N[C@H](CO)C(=O)N[C@@H]([C@H](C)CC(=O)O)C(=O)N[C@@H](CC(=O)c2ccccc2N)C(=O)O[C@@H]1C`, the MIC in the assay on Staphylococcus aureus [1] came out at 6.25 mg/L (≈ 3.35 µM); with Staphylococcus aureus [2], 3.13 mg/L (≈ 1.68 µM); in the assay with Staphylococcus aureus [3], 0.39 mg/L (≈ 0.209 µM); with Enterococcus faecium [4] it was 1.56 mg/L (≈ 0.836 µM); against Enterococcus faecium [5], 25 mg/L (≈ 13.4 µM); in the assay with Staphylococcus aureus [6], 0.78 mg/L (≈ 0.418 µM). The MIC was 0.78 mg/L (≈ 0.418 µM) with Enterococcus faecalis [7] and 12.5 mg/L (≈ 6.7 µM) in the assay with Enterococcus faecalis [8].

Take `CCCCCCCCCC(=O)N[C@@H](Cc1c[nH]c2ccccc12)C(=O)N[C@H](CC(N)=O)C(=O)N[C@@H](CCO)C(=O)N[C@@H]1C(=O)NCC(=O)N[C@@H](CCCNCc2ccc(OCc3ccccc3)cc2)C(=O)N[C@@H](CC(=O)O)C(=O)N[C@H](C)C(=O)N[C@@H](CC(=O)O)C(=O)NCC(=O)N[C@H](CO)C(=O)N[C@@H]([C@H](C)CC(=O)O)C(=O)N[C@@H](CC(=O)c2ccccc2N)C(=O)O[C@@H]1C`: the MIC in the assay with Staphylococcus aureus [1] was 6.25 mg/L (≈ 3.47 µM); with Staphylococcus aureus [2], 6.25 mg/L (≈ 3.47 µM); against Staphylococcus aureus [3] it was 0.78 mg/L (≈ 0.433 µM); against Enterococcus faecium [4], 3.13 mg/L (≈ 1.74 µM); with Enterococcus faecium [5], 25 mg/L (≈ 13.9 µM); against Staphylococcus aureus [6], 0.78 mg/L (≈ 0.433 µM). Besides, the figures for the MIC in the assay on Enterococcus faecalis [7] and against Enterococcus faecalis [8] were 1.56 mg/L (≈ 0.865 µM) and 12.5 mg/L (≈ 6.93 µM), respectively.

Consider `CCCCCCCCCC(=O)N[C@@H](Cc1c[nH]c2ccccc12)C(=O)N[C@H](CC(N)=O)C(=O)N[C@@H](CCO)C(=O)N[C@@H]1C(=O)NCC(=O)N[C@@H](CCCNCc2ccc(OCc3ccccc3)cc2O)C(=O)N[C@@H](CC(=O)O)C(=O)N[C@H](C)C(=O)N[C@@H](CC(=O)O)C(=O)NCC(=O)N[C@H](CO)C(=O)N[C@@H]([C@H](C)CC(=O)O)C(=O)N[C@@H](CC(=O)c2ccccc2N)C(=O)O[C@@H]1C`, for which the MIC with Staphylococcus aureus [1] turned out to be 25 mg/L (≈ 13.7 µM); in the assay on Staphylococcus aureus [2], 12.5 mg/L (≈ 6.87 µM); against Staphylococcus aureus [3], 1.56 mg/L (≈ 0.858 µM); against Enterococcus faecium [4] it was 6.25 mg/L (≈ 3.44 µM); in the assay on Enterococcus faecium [5] it was 100 mg/L (≈ 55 µM); in the assay with Staphylococcus aureus [6], 3.13 mg/L (≈ 1.72 µM). Also, the MIC worked out at 1.56 mg/L (≈ 0.858 µM) in the assay with Enterococcus faecalis [7] and 50 mg/L (≈ 27.5 µM) in the assay with Enterococcus faecalis [8].

In the case of `CCCCCCCCCC(=O)N[C@@H](Cc1c[nH]c2ccccc12)C(=O)N[C@H](CC(N)=O)C(=O)N[C@@H](CCO)C(=O)N[C@@H]1C(=O)NCC(=O)N[C@@H](CCCNCc2ccc(C(=O)N3CCN(c4ccccc4)CC3)cc2)C(=O)N[C@@H](CC(=O)O)C(=O)N[C@H](C)C(=O)N[C@@H](CC(=O)O)C(=O)NCC(=O)N[C@H](CO)C(=O)N[C@@H]([C@H](C)CC(=O)O)C(=O)N[C@@H](CC(=O)c2ccccc2N)C(=O)O[C@@H]1C`, the MIC in the assay with Staphylococcus aureus [1] stood at 1.56 mg/L (≈ 0.828 µM); against Staphylococcus aureus [2], 1.56 mg/L (≈ 0.828 µM); in the assay on Staphylococcus aureus [3], 0.78 mg/L (≈ 0.414 µM); against Enterococcus faecium [4], 6.25 mg/L (≈ 3.32 µM); against Enterococcus faecium [5] it was 6.25 mg/L (≈ 3.32 µM); against Staphylococcus aureus [6] it was 0.78 mg/L (≈ 0.414 µM). Also, the MIC in the assay with Enterococcus faecalis [7] worked out at 3.13 mg/L (≈ 1.66 µM); against Enterococcus faecalis [8], 6.25 mg/L (≈ 3.32 µM).

With `CCCCCCCCCC(=O)N[C@@H](Cc1c[nH]c2ccccc12)C(=O)N[C@H](CC(N)=O)C(=O)N[C@@H](CCO)C(=O)N[C@@H]1C(=O)NCC(=O)N[C@@H](CCCNCc2ccc(C(=O)N3CCN(Cc4ccccc4)CC3)cc2)C(=O)N[C@@H](CC(=O)O)C(=O)N[C@H](C)C(=O)N[C@@H](CC(=O)O)C(=O)NCC(=O)N[C@H](CO)C(=O)N[C@@H]([C@H](C)CC(=O)O)C(=O)N[C@@H](CC(=O)c2ccccc2N)C(=O)O[C@@H]1C`, the MIC against Staphylococcus aureus [1] was 0.78 mg/L (≈ 0.411 µM); against Staphylococcus aureus [2], 0.39 mg/L (≈ 0.205 µM); against Staphylococcus aureus [3], 0.39 mg/L (≈ 0.205 µM); with Enterococcus faecium [4] it was 3.13 mg/L (≈ 1.65 µM); with Enterococcus faecium [5], 6.25 mg/L (≈ 3.29 µM); against Staphylococcus aureus [6], 0.78 mg/L (≈ 0.411 µM). For the same compound, the MIC in the assay with Enterococcus faecalis [7] and in the assay on Enterococcus faecalis [8] was 6.25 mg/L (≈ 3.29 µM) each time.

As for `CCCCCCCCCC(=O)N[C@@H](Cc1c[nH]c2ccccc12)C(=O)N[C@H](CC(N)=O)C(=O)N[C@@H](CCO)C(=O)N[C@@H]1C(=O)NCC(=O)N[C@@H](CCCNCc2ccc3ccccc3n2)C(=O)N[C@@H](CC(=O)O)C(=O)N[C@H](C)C(=O)N[C@@H](CC(=O)O)C(=O)NCC(=O)N[C@H](CO)C(=O)N[C@@H]([C@H](C)CC(=O)O)C(=O)N[C@@H](CC(=O)c2ccccc2N)C(=O)O[C@@H]1C`, the MIC with Staphylococcus aureus [1] turned out to be 1.56 mg/L (≈ 0.893 µM); in the assay with Staphylococcus aureus [2] it was 0.78 mg/L (≈ 0.446 µM); against Staphylococcus aureus [3] it was 0.78 mg/L (≈ 0.446 µM); with Enterococcus faecium [4], 6.25 mg/L (≈ 3.58 µM); with Enterococcus faecium [5] it was 25 mg/L (≈ 14.3 µM); against Staphylococcus aureus [6] it was 0.78 mg/L (≈ 0.446 µM). The minimal inhibitory concentration (MIC) in the assay on Enterococcus faecalis [7] was found to be 6.25 mg/L (≈ 3.58 µM); against Enterococcus faecalis [8], 12.5 mg/L (≈ 7.15 µM).

`CCCCCCCCCC(=O)N[C@@H](Cc1c[nH]c2ccccc12)C(=O)N[C@H](CC(N)=O)C(=O)N[C@@H](CCO)C(=O)N[C@@H]1C(=O)NCC(=O)N[C@@H](CCCNCc2ccccc2N)C(=O)N[C@@H](CC(=O)O)C(=O)N[C@H](C)C(=O)N[C@@H](CC(=O)O)C(=O)NCC(=O)N[C@H](CO)C(=O)N[C@@H]([C@H](C)CC(=O)O)C(=O)N[C@@H](CC(=O)c2ccccc2N)C(=O)O[C@@H]1C`: the MIC in the assay on Staphylococcus aureus [1] amounted to 3.13 mg/L (≈ 1.83 µM); in the assay with Staphylococcus aureus [2], 1.56 mg/L (≈ 0.911 µM); in the assay on Staphylococcus aureus [3] it was 0.78 mg/L (≈ 0.456 µM); with Enterococcus faecium [4], 6.25 mg/L (≈ 3.65 µM); against Enterococcus faecium [5] it was 6.25 mg/L (≈ 3.65 µM); against Staphylococcus aureus [6], 0.78 mg/L (≈ 0.456 µM). For the same compound, the figures for the MIC with Enterococcus faecalis [7] and in the assay on Enterococcus faecalis [8] were 6.25 mg/L (≈ 3.65 µM) and 25 mg/L (≈ 14.6 µM), respectively.

For the compound `CCCCCCCCCC(=O)N[C@@H](Cc1c[nH]c2ccccc12)C(=O)N[C@H](CC(N)=O)C(=O)N[C@@H](CCO)C(=O)N[C@@H]1C(=O)NCC(=O)N[C@@H](CCCNCc2ccc(S(=O)(=O)NCc3ccc(F)cc3)cc2)C(=O)N[C@@H](CC(=O)O)C(=O)N[C@H](C)C(=O)N[C@@H](CC(=O)O)C(=O)NCC(=O)N[C@H](CO)C(=O)N[C@@H]([C@H](C)CC(=O)O)C(=O)N[C@@H](CC(=O)c2ccccc2N)C(=O)O[C@@H]1C`, the MIC is 1.56 mg/L (≈ 0.828 µM) in the assay with Staphylococcus aureus [1]; 0.78 mg/L (≈ 0.414 µM) in the assay on Staphylococcus aureus [2]; 0.39 mg/L (≈ 0.207 µM) against Staphylococcus aureus [3]; 1.56 mg/L (≈ 0.828 µM) against Enterococcus faecium [4]; 6.25 mg/L (≈ 3.32 µM) in the assay on Enterococcus faecium [5]; 0.39 mg/L (≈ 0.207 µM) against Staphylococcus aureus [6]. In addition, the MIC is 1.56 mg/L (≈ 0.828 µM) with Enterococcus faecalis [7] and 3.13 mg/L (≈ 1.66 µM) with Enterococcus faecalis [8].

Consider `CCCCCCCCCC(=O)N[C@@H](Cc1c[nH]c2ccccc12)C(=O)N[C@H](CC(N)=O)C(=O)N[C@@H](CCO)C(=O)N[C@@H]1C(=O)NCC(=O)N[C@@H](CCCNCc2ccccc2[N+](=O)[O-])C(=O)N[C@@H](CC(=O)O)C(=O)N[C@H](C)C(=O)N[C@@H](CC(=O)O)C(=O)NCC(=O)N[C@H](CO)C(=O)N[C@@H]([C@H](C)CC(=O)O)C(=O)N[C@@H](CC(=O)c2ccccc2N)C(=O)O[C@@H]1C`, for which the minimum inhibitory concentration (MIC) with Staphylococcus aureus [1] was determined as 1.56 mg/L (≈ 0.896 µM); against Staphylococcus aureus [2], 0.78 mg/L (≈ 0.448 µM); in the assay with Staphylococcus aureus [3], 0.78 mg/L (≈ 0.448 µM); in the assay with Enterococcus faecium [4] it was 12.5 mg/L (≈ 7.18 µM); with Enterococcus faecium [5], 25 mg/L (≈ 14.4 µM); against Staphylococcus aureus [6], 0.78 mg/L (≈ 0.448 µM). Besides, the MIC with Enterococcus faecalis [7] was found to be 12.5 mg/L (≈ 7.18 µM); with Enterococcus faecalis [8], 25 mg/L (≈ 14.4 µM).

One may read the MIC as the lowest concentration found to suppress growth. A lower MIC goes with greater potency.
